In patent publication US20190053495A1, “POLYMERIC TOPICAL ANTISEPTIC COMPOUND AND METHOD OF USE” (priority 2017, published 2019):

Legend:
[1] = 2 g/kg applied to 10% of shaven skin, ten test animals, Study Day 1; cited from earlier work
[2] = Film thickness of skin scaffold by Dual Polarization Interferometry; assay type: physicochemical
From the text: Film thickness of skin scaffold of polymer 1-Octadecanaminium NN Dimethyl (3 Trihydroxysilyl)propyl chloride polymer with Dual Polarization interferometry.

| Compound | Skin reaction at the application site [1] | MASS ([2]; 40 seconds post injection) [ngmm^−2] | THICKNESS ([2]; 40 seconds post injection) [nm] | MASS ([2]; 10 minutes post injection) [ngmm^−2] | THICKNESS ([2]; 10 minutes post injection) [nm] |
| --- | --- | --- | --- | --- | --- |
| alkyldimethylbenzylammonium chloride [Benzalkonium chloride] | all test animals exhibit erythema, and edema at the application site | – | – | – | – |
| CCCCCCCCCCCCCCCCCC[N+](C)(C)CCC[Si](OC)(OC)OC.[Cl-] [ODTMSPC, 1-Octadecanaminium, N,N, Dimethyl-N-[(3-trimethoxysilyl)propyl] chloride] | – | 3.83 | 41.31 | 3.76 | 33.51 |
